Laboratory results taken from the supplement of paper PMC10307832.

Columns and labels:
Test in all cases: relative viability (nuclei count vs DMSO), 5 days (fraction); higher = more cells survive
[1] = compound: CC(C)N(CCCNC(=O)Nc1ccc(C(C)(C)C)cc1)C[C@H]1O[C@@H](n2ccc3c(N)ncnc32)[C@H](O)[C@@H]1O + Nc1nc2[nH]cc(CCc3ccc(C(=O)N[C@@H](CCC(=O)O)C(=O)O)cc3)c2c(=O)[nH]1 [Pemetrexed] (partner 0.2 µM)
Method in brief: (§1)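 Lung cancer cell lines, seeded in 1536-well plates, were treated the following day by pin tool with a single drug or with five library-drug doses (not always all listed) in √10 steps on top of a fixed anchor-drug dose. Cells were fixed and nuclei stained in one step after 5 days, and nuclei were counted. Relative viability is the nuclei count for treated wells divided by that for vehicle wells, reported as medians of duplicate plates.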

[2] = compound: CC(C)=CC[C@@H](O)C1=CC(=O)c2c(O)ccc(O)c2C1=O [Shikonin] + CC(=O)c1c(C)c2cnc(Nc3ccc(N4CCNCC4)cn3)nc2n(C2CCCC2)c1=O [Palbociclib] (partner 0.5 µM)
Method in brief: as §1

[3] = compound: CC(C)=CC[C@@H](O)C1=CC(=O)c2c(O)ccc(O)c2C1=O [Shikonin] + Cc1nc(NC(=O)N2CCC[C@H]2C(N)=O)sc1-c1ccnc(C(C)(C)C(F)(F)F)c1 [Alpelisib] (partner 2 µM)
Method in brief: as §1

[4] = compound: CC(C)N(CCCNC(=O)Nc1ccc(C(C)(C)C)cc1)C[C@H]1O[C@@H](n2ccc3c(N)ncnc32)[C@H](O)[C@@H]1O + CS(=O)(=O)N1CCN(Cc2cc3nc(-c4cccc5[nH]ncc45)nc(N4CCOCC4)c3s2)CC1 [Pictilisib] (partner 1 µM)
Method in brief: as §1

| Cell Line | relative viability ([1]; first compound 0.08 µM) | relative viability ([1]; first compound 0.253 µM) | relative viability ([1]; first compound 0.8 µM) | relative viability ([1]; first compound 2.53 µM) | relative viability ([1]; first compound 8 µM) | relative viability ([2]; first compound 0.01 µM) | relative viability ([2]; first compound 0.3162 µM) | relative viability ([2]; first compound 1 µM) | relative viability ([3]; first compound 0.01 µM) | relative viability ([3]; first compound 0.1 µM) | relative viability ([3]; first compound 0.3162 µM) | relative viability ([3]; first compound 1 µM) | relative viability ([2]; first compound 0.1 µM) | relative viability ([4]; first compound 0.08 µM) | relative viability ([4]; first compound 0.253 µM) | relative viability ([4]; first compound 0.8 µM) | relative viability ([4]; first compound 2.53 µM) | relative viability ([4]; first compound 8 µM) |
| --- | --- | --- | --- | --- | --- | --- | --- | --- | --- | --- | --- | --- | --- | --- | --- | --- | --- | --- |
| NCI-H1648 | 0.741 | 0.81 | 0.472 | 0.6 | 0.942 | 0.282 | 0.273 | 0.238 |  |  |  |  |  |  |  |  |  |  |
| SK-MES-1 | 1.05 | 0.915 | 0.819 | 1.03 | 0.912 | 0.317 | 0.295 | 0.288 | 0.873 | 1.04 | 0.909 | 0.594 | 0.3 | 0.359 | 0.363 | 0.304 | 0.33 | 0.342 |
| NCI-H520 | 0.614 | 0.743 | 0.663 | 0.787 | 0.7 | 0.191 | 0.229 | 0.208 |  | 1.25 | 0.902 | 0.961 | 0.206 | 0.273 | 0.247 | 0.215 | 0.282 | 0.301 |
| HCC-366 | 0.14 | 0.266 | 0.129 | 0.18 | 0.166 | 0.415 | 0.316 | 0.388 | 0.329 | 0.347 | 0.423 | 0.379 | 0.4 | 0.128 | 0.157 | 0.117 | 0.181 | 0.194 |
| 201T | 0.334 | 0.368 |  | 0.304 | 0.351 | 0.346 | 0.331 | 0.387 | 0.941 | 1.11 | 0.997 | 1.02 | 0.413 | 0.652 | 0.624 | 0.571 | 0.722 | 0.733 |
| HCC-827 | 0.257 | 0.284 | 0.279 | 0.267 | 0.269 | 0.48 | 0.518 | 0.493 | 0.996 | 1.11 | 0.994 | 0.812 | 0.517 | 0.951 | 1.1 | 0.886 | 1.07 | 0.9 |
| NCI-H661 | 0.91 | 0.892 | 0.894 | 0.977 | 0.912 | 0.405 | 0.426 | 0.4 | 0.676 | 0.718 | 0.893 | 0.792 | 0.395 | 0.542 | 0.281 | 0.428 | 0.376 | 0.422 |
| NCI-H2085 | 0.877 | 0.61 | 0.899 | 1.05 | 0.975 | 0.468 | 0.447 | 0.479 | 0.986 | 0.913 | 0.905 | 0.685 | 0.509 | 0.456 | 0.405 | 0.429 | 0.455 | 0.568 |
| NCI-H647 | 0.197 | 0.164 | 0.143 | 0.194 | 0.176 | 0.487 | 0.38 | 0.361 | 1.21 | 1.23 | 0.926 | 1.14 | 0.325 | 0.406 |  | 0.403 | 0.45 | 0.372 |
| SW 1573 | 0.88 | 0.804 | 0.829 | 0.832 | 0.778 | 0.513 | 0.323 | 0.093 | 0.816 | 0.888 | 0.801 | 0.657 | 0.344 | 0.656 | 0.438 | 0.546 | 0.55 | 0.585 |
| A-427 | 1.05 | 0.998 | 0.937 | 0.929 | 0.99 | 0.503 | 0.528 | 0.553 | 1.12 | 1.2 | 1.07 | 1.13 | 0.545 | 0.775 | 0.644 | 0.812 | 0.597 | 0.77 |
| NCI-H460 | 0.0586 | 0.06 | 0.0609 | 0.0624 | 0.0643 | 0.166 | 0.2 | 0.222 | 0.522 | 0.841 | 0.618 | 0.569 | 0.227 | 0.305 | 0.391 | 0.335 | 0.381 | 0.38 |
| NCI-H1703 |  |  |  |  |  |  |  |  | 0.317 | 0.277 | 0.287 | 0.244 |  | 0.223 | 0.247 | 0.257 | 0.244 | 0.24 |
| NCI-H1792 | 0.769 |  | 0.697 | 0.882 | 0.747 | 0.717 | 0.729 | 0.7 | 0.776 | 0.557 | 0.786 | 0.727 | 0.493 | 0.26 | 0.245 | 0.219 | 0.254 | 0.267 |
| Calu-6 |  |  |  |  |  |  |  |  | 0.921 | 1.23 | 0.88 | 0.934 |  | 0.929 | 0.91 | 0.971 | 0.922 | 0.882 |
| SK-LU-1 | 1 | 1.01 | 1.04 | 0.983 | 0.915 | 0.379 | 0.437 | 0.373 | 1 | 1.09 | 0.965 | 0.8 | 0.404 | 0.593 | 0.506 | 0.621 | 0.662 | 0.538 |
